For one assay, the target named is T1, CCK-1 receptor (Homo sapiens, UniProt P32238).
T1 construct: expressed in transfected cells; host or cells: CHO-K1
T1 sequence (P32238 1-428): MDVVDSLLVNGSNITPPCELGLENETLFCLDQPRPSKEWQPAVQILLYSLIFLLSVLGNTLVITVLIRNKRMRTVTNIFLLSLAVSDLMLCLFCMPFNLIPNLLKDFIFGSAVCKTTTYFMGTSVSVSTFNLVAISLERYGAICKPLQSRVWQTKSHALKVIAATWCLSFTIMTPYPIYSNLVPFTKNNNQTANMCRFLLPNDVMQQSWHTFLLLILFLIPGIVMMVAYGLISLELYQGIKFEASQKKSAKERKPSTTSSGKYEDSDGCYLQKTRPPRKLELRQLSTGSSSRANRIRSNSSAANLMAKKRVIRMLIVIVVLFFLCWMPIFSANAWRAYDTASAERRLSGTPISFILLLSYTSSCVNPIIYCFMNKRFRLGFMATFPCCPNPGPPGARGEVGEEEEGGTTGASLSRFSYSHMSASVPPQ
Kind of assay: CCK1 binding assay ([125I]-BH-CCK-8S displacement, CHO-K1 membranes). The note with it: membranes of CHO-K1 cells stably transfected with the CCK-1 receptor; 20 pM [125I]-BH-CCK-8S; 0.3 μM PD-134,308 present; 60 min at 21±3° C.; read-out: CCK1 pKi (converted). An outline of the steps: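 Membranes from CHO-K1 cells stably expressing CCK-1 incubated 1 h at 21±3° C with 20 pM [125I]-BH-CCK-8S in HEPES buffer pH 7.2 containing 0.3 μM PD-134,308 to block CCK-2. Bound radioactivity read by gamma counting after filtration. pKi derived via Cheng-Prusoff, with specific binding defined using 2-NAP.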

The next assay addresses T2, CCK2 receptor (Homo sapiens, UniProt P32239).
T2 construct: analyzed for ZFP expression as well as CCK2R induction upon addition of doxycycline to the culture medium; endogenous in cells
T2 sequence (P32239 1-447): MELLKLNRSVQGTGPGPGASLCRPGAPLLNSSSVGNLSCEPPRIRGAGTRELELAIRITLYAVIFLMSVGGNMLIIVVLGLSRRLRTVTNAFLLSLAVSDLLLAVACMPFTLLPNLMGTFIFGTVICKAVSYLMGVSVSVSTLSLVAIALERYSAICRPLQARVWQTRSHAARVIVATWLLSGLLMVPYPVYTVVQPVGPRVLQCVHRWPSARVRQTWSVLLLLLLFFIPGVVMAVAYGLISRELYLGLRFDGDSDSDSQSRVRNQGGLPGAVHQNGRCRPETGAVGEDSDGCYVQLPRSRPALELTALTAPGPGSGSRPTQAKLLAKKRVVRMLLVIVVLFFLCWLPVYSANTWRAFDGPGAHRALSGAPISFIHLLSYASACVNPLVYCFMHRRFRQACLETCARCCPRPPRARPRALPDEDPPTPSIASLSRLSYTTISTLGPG
Kind of assay: CCK2 binding assay ([125I]-BH-CCK-8S displacement, HEKZFP membranes). The note with it: membranes of doxycycline-induced HEKZFP cells; 20 pM [125I]-BH-CCK-8S; 60 min at 21±3° C.; read-out: CCK2 pKi (converted).

The values below come from patent US7855292B2, “Sulfonamide compounds” (Janssen Pharmaceutica NV, priority 2004, dated 2010).

SMILES strings stand for the structures.

For `O=C(NCCc1ccc(Br)cc1)c1ccc(Cl)cc1NS(=O)(=O)c1c(F)cccc1F` [Example 80, N-[2-(4-Bromo-phenyl)-ethyl]-4-chloro-2-(2,6-difluoro-benzenesulfonylamino)-benzamide], the Ki on CCK-1 receptor was 0.1 µM; on CCK2 receptor, 1.58 µM.

As to `COC(=O)[C@H](Cc1ccc(F)c(Br)c1)NC(=O)c1ccc(Br)cc1NS(=O)(=O)c1cccc2nsnc12` [Example 143, (S)-2-[2-(Benzo[1,2,5]thiadiazole-4-sulfonylamino)-4-bromo-benzoylamino]-3-(3-bromo-4-fluoro-phenyl)-propionic acid methyl ester], the Ki is 0.158 µM at CCK-1 receptor and 0.2 µM on CCK2 receptor.

As to `COC(=O)[C@H](Cc1ccc(Cl)cc1)NC(=O)c1cc(Cl)c(Cl)cc1NS(=O)(=O)c1cccc2nsnc12` [Example 67, (S)-2-[2-(Benzo[1,2,5]thiadiazole-4-sulfonylamino)-4,5-dichloro-benzoylamino]-3-(4-chloro-phenyl)-propionic acid methyl ester], the figures for the Ki at CCK-1 receptor and on CCK2 receptor were 0.2 µM and 0.251 µM, respectively.

In the case of `CC(CNC(=O)c1ccc(I)cc1NS(=O)(=O)c1c(F)cccc1F)c1ccc([N+](=O)[O-])cc1` (centres unmarked) [Example 48, 2-(2,6-Difluoro-benzenesulfonylamino)-4-iodo-N-[2-(4-nitro-phenyl)-propyl]-benzamide], the figures for the Ki at CCK-1 receptor and at CCK2 receptor were 0.0501 µM and 2 µM, respectively.

Regarding `CCOC(=O)[C@H](Cc1ccc(F)c(Br)c1)NC(=O)c1cc(Cl)c(Cl)cc1NS(=O)(=O)c1cccc2nsnc12` [Example 163, (S)-2-[2-(Benzo[1,2,5]thiadiazole-4-sulfonylamino)-4,5-dichloro-benzoylamino]-3-(3-bromo-4-fluoro-phenyl)-propionic acid ethyl ester], the Ki was 0.126 µM at CCK-1 receptor and 0.398 µM on CCK2 receptor.

For `C[C@H](CN1C(=O)c2cc(Br)cc(NS(=O)(=O)c3cccc4nsnc34)c2C1=O)c1ccccc1` [Example 13, (S)-Benzo[1,2,5]thiadiazole-4-sulfonic acid [6-bromo-1,3-dioxo-2-(2-phenyl-propyl)-2,3-dihydro-1H-isoindol-4-yl]-amide], the Ki on CCK-1 receptor is 1.26 µM; on CCK2 receptor, 0.631 µM.

Take `O=C(N[C@H](Cc1ccc(Cl)cc1)C(=O)O)c1cc(Cl)c(Cl)cc1NS(=O)(=O)c1cccc2nsnc12` [Example 14, (R)-2-[2-(Benzo[1,2,5]thiadiazole-4-sulfonylamino)-4,5-dichloro-benzoylamino]-3-(4-chloro-phenyl)-propionic acid]: the Ki on CCK-1 receptor was 0.0126 µM; on CCK2 receptor, 0.316 µM.

Regarding `O=C(NCCc1ccc(Cl)cc1Cl)c1ccc(Cl)cc1NS(=O)(=O)c1cccc2nsnc12` [Example 70, 2-(Benzo[1,2,5]thiadiazole-4-sulfonylamino)-4-chloro-N-[2-(2,4-dichloro-phenyl)-ethyl]-benzamide], the Ki is 0.2 µM at CCK-1 receptor and 6.31 µM at CCK2 receptor.

For `Cc1ccc(C(=O)NC(CO)Cc2ccc(Cl)cc2)c(NS(=O)(=O)c2cccc3nsnc23)c1` (racemic) [Example 12, (±)-2-(Benzo[1,2,5]thiadiazole-4-sulfonylamino)-N-[2-(4-chloro-phenyl)-1-hydroxymethyl-ethyl]-4-methyl-benzamide], the results for the Ki at CCK-1 receptor and on CCK2 receptor were 1.26 µM and 0.0631 µM, respectively.

`CC(CNC(=O)c1ccc(Br)cc1NS(=O)(=O)c1cccc2nsnc12)c1ccc(Cl)c(Cl)c1` (centres unmarked) [Example 5, 2-(Benzo[1,2,5]thiadiazole-4-sulfonylamino)-4-bromo-N-[2-(3,4-dichloro-phenyl)-propyl]-benzamide]: the Ki on CCK-1 receptor was 0.0158 µM; at CCK2 receptor, 0.316 µM.
